ChEMBL document CHEMBL6127139, “Lysine-Targeted Covalent Inhibitors of PI3Kδ Synthesis and Screening by In Situ Interaction Upgradation” (J Med Chem, 2024)
The source made the active and inactive calls. The calls are words filed in the database; no cut-off is given here.

Columns and labels:
[1] = Growth inhibition of PI3Kdelta-overexpressing human SU-DHL-6 cells incubated for 72 hrs by MTT assay; type: functional
[2] = Selectivity index, ratio of IC50 for inhibition of recombinant PI3Kalpha (unknown origin) using PIP2:3PS as substrate to IC50 for inhibition of recombinant PI3Kdelta (unknown origin) using PIP2:3PS as substrate
[3] = Selectivity index, ratio of IC50 for inhibition of recombinant PI3Kbeta (unknown origin) using PIP2:3PS as substrate to IC50 for inhibition of recombinant PI3Kdelta (unknown origin) using PIP2:3PS as substrate
[4] = Selectivity index, ratio of IC50 for inhibition of recombinant PI3Kgamma (unknown origin) using PIP2:3PS as substrate to IC50 for inhibition of recombinant PI3Kdelta (unknown origin) using PIP2:3PS as substrate
[5] = tested on: Raji; test: Growth inhibition of human Raji cells incubated for 72 hrs by MTT assay; type: functional
[6] = Growth inhibition of PI3Kdelta-overexpressing human Pfeiffer cells incubated for 72 hrs by MTT assay; type: functional
[7] = tested on: HCT-116; test: Growth inhibition of human HCT-116 cells incubated for 72 hrs by MTT assay; type: functional
[8] = tested on: MCF7; test: Growth inhibition of human MCF7 cells incubated for 72 hrs by MTT assay; type: functional
[9] = tested on: SU-DHL-6; test: Antiproliferative activity against human SU-DHL-6 cells assessed as inhibition of cell viability preincubated for 12 hrs followed by compound washout and measured after 60 hrs by MTT assay; type: functional, cell-based
[10] = tested on: SU-DHL-6; test: Induction of apoptosis in human SU-DHL-6 cells assessed as viable cells at 10 uM incubated for 48 hrs by Annexin V-FITC/PI staining based flow cytometric analysis (reference value: 89.81 %); type: functional; conditions: read-out: Activity
[11] = tested on: SU-DHL-6; test: Inhibition of AKT phosphorylation in human SU-DHL-6 cells preincubated for 12 hrs followed by compound washout and measured after 24 hrs by Western blot analysis; type: cell-based
[12] = tested on: SU-DHL-6; test: Inhibition of AKT phosphorylation in human SU-DHL-6 cells preincubated for 12 hrs followed by compound washout and measured upto 72 hrs by Western blot analysis; type: cell-based
[13] = tested on: SU-DHL-6; test: Induction of apoptosis in human SU-DHL-6 cells assessed as viable cells at 1 uM incubated for 48 hrs by Annexin V-FITC/PI staining based flow cytometric analysis (reference value: 89.81 %); type: functional; conditions: read-out: Activity
[14] = tested on: SU-DHL-6; test: Induction of apoptosis in human SU-DHL-6 cells assessed as early apoptotic cells at 1 uM incubated for 48 hrs by Annexin V-FITC/PI staining based flow cytometric analysis (reference value: 5.02 %); type: functional
[15] = tested on: SU-DHL-6; test: Induction of apoptosis in human SU-DHL-6 cells assessed as late apoptotic cells at 1 uM incubated for 48 hrs by Annexin V-FITC/PI staining based flow cytometric analysis (reference value: 4.12 %); type: functional
[16] = tested on: SU-DHL-6; test: Induction of apoptosis in human SU-DHL-6 cells assessed as necrotic cells at 1 uM incubated for 48 hrs by Annexin V-FITC/PI staining based flow cytometric analysis (reference value: 1.05 %); type: functional
[17] = tested on: SU-DHL-6; test: Induction of apoptosis in human SU-DHL-6 cells assessed as early apoptotic cells at 10 uM incubated for 48 hrs by Annexin V-FITC/PI staining based flow cytometric analysis (reference value: 5.02 %); type: functional
[18] = tested on: SU-DHL-6; test: Induction of apoptosis in human SU-DHL-6 cells assessed as late apoptotic cells at 10 uM incubated for 48 hrs by Annexin V-FITC/PI staining based flow cytometric analysis (reference value: 4.12 %); type: functional
[19] = tested on: SU-DHL-6; test: Induction of apoptosis in human SU-DHL-6 cells assessed as necrotic cells at 10 uM incubated for 48 hrs by Annexin V-FITC/PI staining based flow cytometric analysis (reference value: 1.05 %); type: functional
[20] = tested on: SU-DHL-6; test: Antitumor activity against human SU-DHL-6 cells xenografted in male nude mouse assessed as tumor growth inhibition at 5 mg/kg/day, po administered for 14 days relative to control; type: functional; conditions: SU-DHL-6, 336 h, time 14 day, read-out: TGI
[21] = Chemical reactivity of the compound with N-Boc-Lysine assessed as half-life at 1 uM by HPLC analysis; type: physicochemical; conditions: incubation with N-Boc-Lysine
[22] = molecular target: T1, Phosphatidylinositol 4,5-bisphosphate 3-kinase catalytic subunit delta isoform (Homo sapiens, UniProt O00329); test: Inhibition of recombinant PI3Kdelta (unknown origin) using PIP2:3PS as substrate preincubated for 20 mins followed by ATP addition and measured after 1 hrs by ADP-Glo reagent based assay
T1 sequence (O00329 whole entry): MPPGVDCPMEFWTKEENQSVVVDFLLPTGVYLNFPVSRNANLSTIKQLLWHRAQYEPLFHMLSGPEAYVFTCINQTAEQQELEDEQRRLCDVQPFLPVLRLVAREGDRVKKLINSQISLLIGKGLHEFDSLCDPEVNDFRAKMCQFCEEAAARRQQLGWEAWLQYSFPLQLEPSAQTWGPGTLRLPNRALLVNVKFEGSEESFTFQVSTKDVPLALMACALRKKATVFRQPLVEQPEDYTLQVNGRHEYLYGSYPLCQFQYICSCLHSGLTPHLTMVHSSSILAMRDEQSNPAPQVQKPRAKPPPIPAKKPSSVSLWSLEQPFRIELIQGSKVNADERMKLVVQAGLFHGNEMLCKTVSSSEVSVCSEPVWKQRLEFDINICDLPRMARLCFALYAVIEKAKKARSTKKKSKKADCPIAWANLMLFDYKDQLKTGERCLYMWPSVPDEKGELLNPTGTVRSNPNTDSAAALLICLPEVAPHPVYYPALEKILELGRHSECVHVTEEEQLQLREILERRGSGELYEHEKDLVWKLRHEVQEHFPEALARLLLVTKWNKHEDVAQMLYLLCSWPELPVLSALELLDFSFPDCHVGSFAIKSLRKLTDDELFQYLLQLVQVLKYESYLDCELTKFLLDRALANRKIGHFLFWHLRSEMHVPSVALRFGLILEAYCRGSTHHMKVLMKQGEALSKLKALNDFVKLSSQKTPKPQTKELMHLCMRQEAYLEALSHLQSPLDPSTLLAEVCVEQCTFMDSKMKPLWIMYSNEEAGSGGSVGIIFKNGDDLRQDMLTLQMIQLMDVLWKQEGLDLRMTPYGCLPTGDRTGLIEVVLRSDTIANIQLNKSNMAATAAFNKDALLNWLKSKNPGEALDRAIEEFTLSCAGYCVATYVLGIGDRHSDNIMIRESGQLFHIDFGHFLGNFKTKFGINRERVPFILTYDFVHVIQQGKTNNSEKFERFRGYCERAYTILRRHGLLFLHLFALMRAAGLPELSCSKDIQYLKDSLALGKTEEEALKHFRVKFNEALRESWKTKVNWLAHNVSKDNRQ

[23] = molecular target: Phosphatidylinositol 4,5-bisphosphate 3-kinase catalytic subunit alpha isoform (Homo sapiens, UniProt P42336); test: Inhibition of recombinant PI3Kalpha (unknown origin) using PIP2:3PS as substrate preincubated for 20 mins followed by ATP addition and measured after 1 hrs by ADP-Glo reagent based assay
[24] = molecular target: Phosphatidylinositol 4,5-bisphosphate 3-kinase catalytic subunit beta isoform (Homo sapiens, UniProt P42338); test: Inhibition of recombinant PI3Kbeta (unknown origin) using PIP2:3PS as substrate preincubated for 20 mins followed by ATP addition and measured after 1 hrs by ADP-Glo reagent based assay
[25] = molecular target: Phosphatidylinositol 4,5-bisphosphate 3-kinase catalytic subunit gamma isoform (Homo sapiens, UniProt P48736); test: Inhibition of recombinant PI3Kgamma (unknown origin) using PIP2:3PS as substrate preincubated for 20 mins followed by ATP addition and measured after 1 hrs by ADP-Glo reagent based assay
[26] = molecular target: T2, Phosphatidylinositol 4,5-bisphosphate 3-kinase catalytic subunit delta isoform (Homo sapiens) (UniProt O00329); test: Potency index, ratio of idelalisib IC50 to test compound IC50 for inhibition of recombinant PI3Kdelta (unknown origin) using PIP2:3PS as substrate preincubated for 20 mins followed by ATP addition and measured after 1 hrs by ADP-Glo reagent based assay; conditions: time 80.0 min
T2 sequence (whole entry): T1 sequence (O00329 whole entry)

[27] = tested on: SU-DHL-6; test: Potency index, ratio of idelalisib GI50 to test compound GI50 for growth inhibition of PI3Kdelta-overexpressing human SU-DHL-6 cells incubated for 72 hrs by MTT assay; type: functional
[28] = Stability of compound in PBS at pH 7.4 incubated for 24 hrs at 37 degreeC by HPLC analysis; type: physicochemical; conditions: buffer, pH 7.4, 24 h
[29] = Stability of compound in water/acetonitrile solution incubated for 24 hrs by HPLC analysis; type: physicochemical; conditions: buffer
[30] = Selectivity ratio of GI50 for human HCT-116 cells to GI50 for PI3Kdelta overexpressing human SU-DHL-6; type: functional
[31] = tested on: SU-DHL-6; test: Inhibition of AKT phosphorylation in human SU-DHL-6 cells incubated for 24 hrs by Western blot analysis; type: cell-based; conditions: dose 10-1000 nM
[32] = molecular target: T2, Phosphatidylinositol 4,5-bisphosphate 3-kinase catalytic subunit delta isoform (Homo sapiens); test: Covalent inhibition of PI3Kdelta (unknown origin) using PIP2:3PS as substrate assessed as second order rate constant (Kinact/Ki ratio) incubated upto 180 mins in presence of ATP by ADP-Glo reagent based assay

Chain of Phosphatidylinositol 4,5-bisphosphate 3-kinase catalytic subunit gamma isoform (P48736 whole entry, canonical isoform): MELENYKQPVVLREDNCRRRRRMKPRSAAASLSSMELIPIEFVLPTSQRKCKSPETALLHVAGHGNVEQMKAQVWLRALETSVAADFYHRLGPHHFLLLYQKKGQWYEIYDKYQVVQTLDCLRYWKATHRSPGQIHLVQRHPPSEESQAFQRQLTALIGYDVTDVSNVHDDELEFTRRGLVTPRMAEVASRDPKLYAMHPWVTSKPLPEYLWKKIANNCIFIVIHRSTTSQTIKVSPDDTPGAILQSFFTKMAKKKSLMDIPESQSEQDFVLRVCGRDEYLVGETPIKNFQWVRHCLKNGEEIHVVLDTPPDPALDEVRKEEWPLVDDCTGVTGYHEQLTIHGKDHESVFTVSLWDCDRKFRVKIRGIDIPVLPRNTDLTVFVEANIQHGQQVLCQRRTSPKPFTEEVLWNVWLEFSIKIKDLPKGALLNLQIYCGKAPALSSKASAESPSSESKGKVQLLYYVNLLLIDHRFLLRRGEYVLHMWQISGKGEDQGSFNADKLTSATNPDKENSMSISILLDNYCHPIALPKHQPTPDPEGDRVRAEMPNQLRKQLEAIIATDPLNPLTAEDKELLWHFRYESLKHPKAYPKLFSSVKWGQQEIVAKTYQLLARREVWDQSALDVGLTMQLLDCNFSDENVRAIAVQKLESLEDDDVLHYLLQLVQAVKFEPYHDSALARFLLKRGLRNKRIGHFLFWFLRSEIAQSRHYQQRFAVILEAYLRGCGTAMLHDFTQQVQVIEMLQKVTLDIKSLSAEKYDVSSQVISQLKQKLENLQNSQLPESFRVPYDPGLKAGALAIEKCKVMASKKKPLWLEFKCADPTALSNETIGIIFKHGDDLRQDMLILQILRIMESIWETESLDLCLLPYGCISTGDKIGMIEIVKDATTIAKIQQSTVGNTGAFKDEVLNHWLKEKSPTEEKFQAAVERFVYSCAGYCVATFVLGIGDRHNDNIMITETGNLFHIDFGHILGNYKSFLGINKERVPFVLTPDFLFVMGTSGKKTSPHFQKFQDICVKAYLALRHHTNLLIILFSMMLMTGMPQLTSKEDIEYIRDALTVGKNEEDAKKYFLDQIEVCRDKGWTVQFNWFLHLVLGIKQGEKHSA
Chain of Phosphatidylinositol 4,5-bisphosphate 3-kinase catalytic subunit beta isoform (P42338 whole entry, canonical isoform): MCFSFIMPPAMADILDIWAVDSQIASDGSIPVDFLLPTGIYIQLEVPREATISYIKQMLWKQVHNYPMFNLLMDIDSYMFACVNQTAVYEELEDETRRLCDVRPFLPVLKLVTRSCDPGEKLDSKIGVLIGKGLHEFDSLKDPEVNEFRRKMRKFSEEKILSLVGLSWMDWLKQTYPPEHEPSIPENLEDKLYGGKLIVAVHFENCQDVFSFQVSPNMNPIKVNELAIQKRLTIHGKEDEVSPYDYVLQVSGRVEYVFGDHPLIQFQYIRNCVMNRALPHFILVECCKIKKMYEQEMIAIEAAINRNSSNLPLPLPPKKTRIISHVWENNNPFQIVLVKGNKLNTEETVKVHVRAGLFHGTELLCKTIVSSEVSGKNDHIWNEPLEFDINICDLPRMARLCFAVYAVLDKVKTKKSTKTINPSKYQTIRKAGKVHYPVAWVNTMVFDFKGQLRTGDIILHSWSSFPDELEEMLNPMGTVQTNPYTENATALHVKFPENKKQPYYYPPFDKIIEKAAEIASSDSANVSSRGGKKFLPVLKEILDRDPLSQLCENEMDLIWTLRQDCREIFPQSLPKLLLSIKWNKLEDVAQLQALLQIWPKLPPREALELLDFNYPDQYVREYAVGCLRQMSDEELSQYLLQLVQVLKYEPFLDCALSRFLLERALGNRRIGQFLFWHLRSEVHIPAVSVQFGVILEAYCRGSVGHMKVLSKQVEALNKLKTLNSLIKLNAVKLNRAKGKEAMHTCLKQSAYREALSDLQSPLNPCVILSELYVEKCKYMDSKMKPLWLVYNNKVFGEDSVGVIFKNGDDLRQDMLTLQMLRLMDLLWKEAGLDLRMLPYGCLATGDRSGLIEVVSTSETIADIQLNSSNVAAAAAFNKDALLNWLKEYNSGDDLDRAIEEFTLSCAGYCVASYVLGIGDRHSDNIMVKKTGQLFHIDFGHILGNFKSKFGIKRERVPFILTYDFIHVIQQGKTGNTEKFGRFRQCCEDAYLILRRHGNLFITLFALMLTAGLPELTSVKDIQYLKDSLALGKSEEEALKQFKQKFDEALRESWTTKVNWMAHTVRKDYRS
Chain of Phosphatidylinositol 4,5-bisphosphate 3-kinase catalytic subunit alpha isoform (P42336 whole entry, canonical isoform): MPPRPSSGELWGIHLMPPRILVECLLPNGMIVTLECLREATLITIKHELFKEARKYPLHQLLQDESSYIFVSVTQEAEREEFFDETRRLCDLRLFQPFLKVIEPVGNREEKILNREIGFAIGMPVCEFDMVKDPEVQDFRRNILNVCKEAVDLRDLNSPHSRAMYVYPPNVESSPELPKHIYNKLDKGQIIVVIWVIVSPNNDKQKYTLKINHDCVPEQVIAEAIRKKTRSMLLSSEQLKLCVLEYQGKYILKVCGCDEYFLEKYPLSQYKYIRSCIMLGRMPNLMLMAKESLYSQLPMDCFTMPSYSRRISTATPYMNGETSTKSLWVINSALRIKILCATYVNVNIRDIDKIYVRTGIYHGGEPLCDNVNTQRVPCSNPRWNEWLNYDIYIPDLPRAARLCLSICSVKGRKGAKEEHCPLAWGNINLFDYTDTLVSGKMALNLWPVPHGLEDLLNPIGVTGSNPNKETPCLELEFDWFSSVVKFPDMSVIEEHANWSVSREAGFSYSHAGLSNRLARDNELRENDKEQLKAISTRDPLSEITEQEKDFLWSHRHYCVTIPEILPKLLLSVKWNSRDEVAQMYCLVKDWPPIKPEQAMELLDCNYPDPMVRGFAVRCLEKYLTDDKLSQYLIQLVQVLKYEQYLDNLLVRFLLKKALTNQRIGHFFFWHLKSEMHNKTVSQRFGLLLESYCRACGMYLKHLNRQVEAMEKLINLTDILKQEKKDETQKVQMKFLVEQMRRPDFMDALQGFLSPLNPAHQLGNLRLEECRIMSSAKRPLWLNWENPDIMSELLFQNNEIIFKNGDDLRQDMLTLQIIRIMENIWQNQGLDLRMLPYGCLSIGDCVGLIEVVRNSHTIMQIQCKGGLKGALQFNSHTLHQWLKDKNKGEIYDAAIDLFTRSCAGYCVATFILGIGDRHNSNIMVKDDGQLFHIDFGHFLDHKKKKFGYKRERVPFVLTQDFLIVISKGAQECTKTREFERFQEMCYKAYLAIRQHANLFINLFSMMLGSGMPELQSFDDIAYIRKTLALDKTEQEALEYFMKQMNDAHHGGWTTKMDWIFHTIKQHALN

SMILES | Ratio IC50 [2] | Ratio IC50 [3] | Ratio IC50 [4] | GI50 [5] [nM] | GI50 [7] [nM] | GI50 [8] [nM] | half-life at 1 µM [21] [h] | IC50 [22] [nM] | IC50 [23] [nM] | IC50 [24] [nM] | IC50 [25] [nM] | GI50 [1] [nM] | GI50 [6] [nM] | Activity [9] | inhibition [11] | inhibition [12] | further results
COc1ncc(-c2ccc3ncnc(N[C@H]4CCN(C(=O)C5CCOCC5)C4)c3c2)cc1C#N | 9 | 97 | 64 | > 10000 |  |  |  |  |  |  |  | 4550 |  |  |  |  | 
COc1ncc(-c2ccc3ncnc(N[C@H]4CCN(C(=O)C5CCOCC5)C4)c3c2)cc1C(=O)Oc1ccccc1 | 124 | 292 | > 1000 | 8200 | 1900 | > 10000 | 2.4 | 0.53 | 66 | 155 | 656 | 3 | 195 | Active | Active | Active | Ratio IC50 [26]: 10; RatioGI50 [27]: ~10; Stability [28]: Stable; Stability [29]: Stable; RatioGI50 [30]: 2500; inhibition [31]: Dose-Dependent Effect
COc1ncc(-c2cc(-c3ncc(CN4CCN(C(C)C)CC4)o3)c3cn[nH]c3c2)cc1C(=O)Oc1ccc(F)cc1 |  |  |  |  |  |  |  |  |  |  |  |  |  |  |  |  | Ratio [32]: 3.75 10^4/M/s

The next lines start with results.

Ratio IC50 [2] | Ratio IC50 [3] | Ratio IC50 [4] | GI50 [5] [nM] | GI50 [7] [nM] | GI50 [8] [nM] | half-life at 1 µM [21] [h] | IC50 [22] [nM] | IC50 [23] [nM] | IC50 [24] [nM] | IC50 [25] [nM] | SMILES | GI50 [1] [nM] | GI50 [6] [nM] | Activity [9] | inhibition [11] | inhibition [12] | further results
 |  |  | > 10000 | > 10000 | > 10000 |  |  |  |  |  | CC[C@H](Nc1ncnc2[nH]cnc12)c1nc2cccc(F)c2c(=O)n1-c1ccccc1 [IDELALISIB] | 200 | 8330 | inactive | inactive | inactive | viability at 10 µM [10]: 79.4%; viability at 1 µM [13]: 87%; Activity [14]: 6.76%; Activity [15]: 3.46%; Activity [16]: 0.8%; Activity [17]: 13.29%; Activity [18]: 6.75%; Activity [19]: 0.6%; inhibition in vivo at 5 mg/kg/day [20]: 50%
3 |  | 14 | 6610 | 2140 | 6330 | 0.917 | 4.45 | 14.1 | 241 | 63.7 | COc1ncc(-c2ccc3ncnc(N[C@H]4CCN(C(=O)C5CCOCC5)C4)c3n2)cc1C(=O)Oc1ccc(F)cc1 | 4 | 97 | Active | Active | Active | 
11 | 13 | 92 | 7590 | 1520 | > 10000 | 1.12 | 2.24 | 25.6 | 30 | 208 | COc1ncc(-c2ccc3ncnc(N[C@H]4CCN(C(=O)C5CCOCC5)C4)c3c2)cc1C(=O)Oc1ccc(F)cc1 | 3 | 130 | Active | Active | Active | 
